Our source for the Activity values is ChEMBL document CHEMBL5696441 (Nat Chem Biol, 2011).

Structures are written as SMILES.

The target of experiment [1] is Interleukin-1 receptor-associated kinase 3 (Homo sapiens) (UniProt Q9Y616). As to the kind of experiment: Inhibition of IRAK3 (unknown origin) assessed as remaining activity at 1 uM by Kinome scan method relative to control.
Experiment [2] has as its system Phosphatidylinositol 4,5-bisphosphate 3-kinase catalytic subunit alpha isoform (Homo sapiens), P42336 [M1043I]. As to the kind of experiment: Inhibition of PIK3CA M1043I mutant (unknown origin) assessed as remaining activity at 1 uM by Kinome scan method relative to control.
Experiment [3] addresses Tyrosine-protein kinase receptor Tie-1 (Homo sapiens) (UniProt P35590). As to the kind of experiment: Inhibition of TIE1 (unknown origin) assessed as remaining activity at 1 uM by Kinome scan method relative to control.
Experiment [4] has as its target T1, Ephrin type-A receptor 3 (Homo sapiens) (UniProt P29320).
T1 sequence (whole entry): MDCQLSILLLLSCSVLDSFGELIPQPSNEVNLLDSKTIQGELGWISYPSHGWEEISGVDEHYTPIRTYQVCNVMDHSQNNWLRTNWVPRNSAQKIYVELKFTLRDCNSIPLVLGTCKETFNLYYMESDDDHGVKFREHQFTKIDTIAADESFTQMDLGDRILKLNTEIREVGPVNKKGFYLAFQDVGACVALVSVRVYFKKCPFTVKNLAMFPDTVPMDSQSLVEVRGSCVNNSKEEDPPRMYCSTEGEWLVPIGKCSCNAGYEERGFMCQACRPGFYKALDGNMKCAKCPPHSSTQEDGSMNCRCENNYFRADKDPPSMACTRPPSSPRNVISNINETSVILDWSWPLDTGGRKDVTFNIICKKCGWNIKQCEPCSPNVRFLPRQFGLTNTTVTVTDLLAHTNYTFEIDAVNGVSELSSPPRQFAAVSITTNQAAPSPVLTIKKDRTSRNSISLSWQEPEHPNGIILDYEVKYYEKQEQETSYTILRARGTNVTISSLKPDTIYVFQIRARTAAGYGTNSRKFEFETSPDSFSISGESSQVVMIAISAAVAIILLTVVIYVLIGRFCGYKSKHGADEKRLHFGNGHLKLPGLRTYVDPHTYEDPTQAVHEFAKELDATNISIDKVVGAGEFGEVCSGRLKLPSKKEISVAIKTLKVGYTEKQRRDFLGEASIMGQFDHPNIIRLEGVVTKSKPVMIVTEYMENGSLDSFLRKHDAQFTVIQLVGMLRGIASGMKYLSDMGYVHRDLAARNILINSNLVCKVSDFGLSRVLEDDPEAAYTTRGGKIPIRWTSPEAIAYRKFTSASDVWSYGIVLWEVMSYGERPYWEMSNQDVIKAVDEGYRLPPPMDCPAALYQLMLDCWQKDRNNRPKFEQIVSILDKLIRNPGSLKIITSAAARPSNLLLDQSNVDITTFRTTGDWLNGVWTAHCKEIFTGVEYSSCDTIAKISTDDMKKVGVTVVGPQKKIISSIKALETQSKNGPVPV
As to the kind of experiment: Inhibition of EPHA3 (unknown origin) assessed as remaining activity at 1 uM by Kinome scan method relative to control.

The target in experiment [5] is Cyclin-dependent kinase 2 (Homo sapiens) (UniProt P24941). As to the kind of experiment: Inhibition of CDK2 (unknown origin) assessed as remaining activity at 1 uM by Kinome scan method relative to control.
The target of experiment [6] is Casein kinase I isoform gamma-1 (Homo sapiens) (UniProt Q9HCP0). As to the kind of experiment: Inhibition of CSNK1G1 (unknown origin) assessed as remaining activity at 1 uM by Kinome scan method relative to control.
Experiment [7] deals with Fibroblast growth factor receptor 3 (Homo sapiens) (UniProt P22607). As to the kind of experiment: Inhibition of FGFR3 (unknown origin) assessed as remaining activity at 1 uM by Kinome scan method relative to control.
For a further experiment, the species on record is Homo sapiens. As to the kind of experiment: Inhibition of ACVR1a (unknown origin) assessed as remaining activity at 1 uM by Kinome scan method relative to control.
Experiment [8] deals with Serine/threonine-protein kinase DCLK3 (Homo sapiens) (UniProt Q9C098). As to the kind of experiment: Inhibition of DCAMKL3 (unknown origin) assessed as remaining activity at 1 uM by Kinome scan method relative to control.
Experiment [9] deals with Myosin light chain kinase 2, skeletal/cardiac muscle (Homo sapiens) (UniProt Q9H1R3). As to the kind of experiment: Inhibition of MYLK2 (unknown origin) assessed as remaining activity at 1 uM by Kinome scan method relative to control.
Experiment [10] addresses Serine/threonine-protein kinase PAK 5 (Homo sapiens) (UniProt Q9P286). As to the kind of experiment: Inhibition of PAK7 (unknown origin) assessed as remaining activity at 1 uM by Kinome scan method relative to control.
Experiment [11] deals with Serine/threonine-protein kinase MARK1 (Homo sapiens) (UniProt Q9P0L2). As to the kind of experiment: Inhibition of MARK1 (unknown origin) assessed as remaining activity at 1 uM by Kinome scan method relative to control.
The target of experiment [12] is Mitogen-activated protein kinase 14 (Homo sapiens) (UniProt Q16539). As to the kind of experiment: Inhibition of non-phosphorylated human N-terminal His-P38alpha overexpressed in Escherichia coli BL21 (DE3) assessed as remaining activity at 1 uM by Kinome scan method relative to control.
The target of experiment [13] is Activin receptor type-1-like (Homo sapiens) (UniProt P37023). As to the kind of experiment: Inhibition of ACVRL1 (unknown origin) assessed as remaining activity at 1 uM by Kinome scan method relative to control.
Experiment [14] concerns the target TRAF2 and NCK-interacting protein kinase (Homo sapiens) (UniProt Q9UKE5). As to the kind of experiment: Inhibition of TNIK (unknown origin) assessed as remaining activity at 1 uM by Kinome scan method relative to control.
The target in experiment [15] is Homeodomain-interacting protein kinase 3 (Homo sapiens) (UniProt Q9H422). As to the kind of experiment: Inhibition of HIPK3 (unknown origin) assessed as remaining activity at 1 uM by Kinome scan method relative to control.
In experiment [16] the target is Serine/threonine-protein kinase LATS2 (Homo sapiens) (UniProt Q9NRM7). As to the kind of experiment: Inhibition of LATS2 (unknown origin) assessed as remaining activity at 1 uM by Kinome scan method relative to control.
Experiment [17] addresses Mitogen-activated protein kinase 8 (Homo sapiens) (UniProt P45983). As to the kind of experiment: Inhibition of JNK1 (unknown origin) assessed as remaining activity at 1 uM by Kinome scan method relative to control.
In experiment [18] the target is Cyclin-dependent kinase 14 (Homo sapiens) (UniProt O94921). As to the kind of experiment: Inhibition of PFTK1 (unknown origin) assessed as remaining activity at 1 uM by Kinome scan method relative to control.
Experiment [19] has as its target Serine/threonine-protein kinase MRCK beta (Homo sapiens) (UniProt Q9Y5S2). As to the kind of experiment: Inhibition of MRCKB (unknown origin) assessed as remaining activity at 1 uM by Kinome scan method relative to control.
Experiment [20] has as its target STE20/SPS1-related proline-alanine-rich protein kinase (Homo sapiens) (UniProt Q9UEW8). As to the kind of experiment: Inhibition of STK39 (unknown origin) assessed as remaining activity at 1 uM by Kinome scan method relative to control.
The target in experiment [21] is Cyclin-dependent kinase 18 (Homo sapiens) (UniProt Q07002). As to the kind of experiment: Inhibition of PCTK3 (unknown origin) assessed as remaining activity at 1 uM by Kinome scan method relative to control.
The target in experiment [22] is Rhodopsin kinase GRK1 (Homo sapiens) (UniProt Q15835). As to the kind of experiment: Inhibition of GRK1 (unknown origin) assessed as remaining activity at 1 uM by Kinome scan method relative to control.

Cyclin-dependent kinase 14 (Homo sapiens), sequence (O94921 whole entry): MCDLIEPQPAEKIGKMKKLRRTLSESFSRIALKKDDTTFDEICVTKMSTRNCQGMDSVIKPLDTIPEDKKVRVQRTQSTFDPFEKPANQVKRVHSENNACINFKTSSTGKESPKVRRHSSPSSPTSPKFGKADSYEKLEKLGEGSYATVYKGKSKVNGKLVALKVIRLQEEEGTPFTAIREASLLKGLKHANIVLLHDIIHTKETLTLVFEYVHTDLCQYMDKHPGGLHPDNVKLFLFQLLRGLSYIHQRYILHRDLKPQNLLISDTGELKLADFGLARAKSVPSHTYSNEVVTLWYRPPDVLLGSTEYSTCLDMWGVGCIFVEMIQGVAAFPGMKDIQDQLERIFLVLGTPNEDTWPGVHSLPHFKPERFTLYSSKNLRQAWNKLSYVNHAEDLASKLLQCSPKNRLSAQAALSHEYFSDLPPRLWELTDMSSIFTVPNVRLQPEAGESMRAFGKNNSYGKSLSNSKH
Serine/threonine-protein kinase PAK 5 (Homo sapiens), sequence (Q9P286 whole entry, looked up): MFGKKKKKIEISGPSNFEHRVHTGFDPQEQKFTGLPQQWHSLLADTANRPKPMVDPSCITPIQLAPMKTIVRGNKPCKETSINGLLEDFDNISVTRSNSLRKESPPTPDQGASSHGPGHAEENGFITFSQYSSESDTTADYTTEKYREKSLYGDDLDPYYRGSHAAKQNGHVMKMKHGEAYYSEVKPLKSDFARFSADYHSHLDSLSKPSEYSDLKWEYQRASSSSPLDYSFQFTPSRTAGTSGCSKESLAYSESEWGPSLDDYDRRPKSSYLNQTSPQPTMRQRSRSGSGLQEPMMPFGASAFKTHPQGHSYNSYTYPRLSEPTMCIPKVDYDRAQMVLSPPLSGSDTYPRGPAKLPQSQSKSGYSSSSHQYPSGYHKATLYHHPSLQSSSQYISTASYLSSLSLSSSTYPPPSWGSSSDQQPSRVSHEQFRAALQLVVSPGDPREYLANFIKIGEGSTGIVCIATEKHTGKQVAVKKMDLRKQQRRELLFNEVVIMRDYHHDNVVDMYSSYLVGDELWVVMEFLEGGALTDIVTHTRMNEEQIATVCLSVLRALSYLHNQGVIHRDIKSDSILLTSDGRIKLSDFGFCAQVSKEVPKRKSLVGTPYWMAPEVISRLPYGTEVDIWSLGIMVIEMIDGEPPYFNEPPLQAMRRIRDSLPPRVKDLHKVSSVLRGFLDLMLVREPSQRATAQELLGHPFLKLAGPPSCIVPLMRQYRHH
Mitogen-activated protein kinase 8 (Homo sapiens), sequence (P45983 whole entry): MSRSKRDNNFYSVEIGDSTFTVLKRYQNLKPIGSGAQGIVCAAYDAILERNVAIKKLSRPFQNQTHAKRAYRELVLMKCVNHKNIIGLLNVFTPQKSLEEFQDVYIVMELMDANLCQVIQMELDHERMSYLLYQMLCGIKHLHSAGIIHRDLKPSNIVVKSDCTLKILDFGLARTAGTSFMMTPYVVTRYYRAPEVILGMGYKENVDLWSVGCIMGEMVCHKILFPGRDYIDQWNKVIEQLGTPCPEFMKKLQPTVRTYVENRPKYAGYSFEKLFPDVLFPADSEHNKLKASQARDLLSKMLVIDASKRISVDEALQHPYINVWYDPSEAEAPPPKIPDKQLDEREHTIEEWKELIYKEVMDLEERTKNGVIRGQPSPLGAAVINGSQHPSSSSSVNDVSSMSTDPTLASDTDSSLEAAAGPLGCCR
Phosphatidylinositol 4,5-bisphosphate 3-kinase catalytic subunit alpha isoform (Homo sapiens), P42336 [M1043I], sequence (P42336 whole entry M1043I, canonical isoform): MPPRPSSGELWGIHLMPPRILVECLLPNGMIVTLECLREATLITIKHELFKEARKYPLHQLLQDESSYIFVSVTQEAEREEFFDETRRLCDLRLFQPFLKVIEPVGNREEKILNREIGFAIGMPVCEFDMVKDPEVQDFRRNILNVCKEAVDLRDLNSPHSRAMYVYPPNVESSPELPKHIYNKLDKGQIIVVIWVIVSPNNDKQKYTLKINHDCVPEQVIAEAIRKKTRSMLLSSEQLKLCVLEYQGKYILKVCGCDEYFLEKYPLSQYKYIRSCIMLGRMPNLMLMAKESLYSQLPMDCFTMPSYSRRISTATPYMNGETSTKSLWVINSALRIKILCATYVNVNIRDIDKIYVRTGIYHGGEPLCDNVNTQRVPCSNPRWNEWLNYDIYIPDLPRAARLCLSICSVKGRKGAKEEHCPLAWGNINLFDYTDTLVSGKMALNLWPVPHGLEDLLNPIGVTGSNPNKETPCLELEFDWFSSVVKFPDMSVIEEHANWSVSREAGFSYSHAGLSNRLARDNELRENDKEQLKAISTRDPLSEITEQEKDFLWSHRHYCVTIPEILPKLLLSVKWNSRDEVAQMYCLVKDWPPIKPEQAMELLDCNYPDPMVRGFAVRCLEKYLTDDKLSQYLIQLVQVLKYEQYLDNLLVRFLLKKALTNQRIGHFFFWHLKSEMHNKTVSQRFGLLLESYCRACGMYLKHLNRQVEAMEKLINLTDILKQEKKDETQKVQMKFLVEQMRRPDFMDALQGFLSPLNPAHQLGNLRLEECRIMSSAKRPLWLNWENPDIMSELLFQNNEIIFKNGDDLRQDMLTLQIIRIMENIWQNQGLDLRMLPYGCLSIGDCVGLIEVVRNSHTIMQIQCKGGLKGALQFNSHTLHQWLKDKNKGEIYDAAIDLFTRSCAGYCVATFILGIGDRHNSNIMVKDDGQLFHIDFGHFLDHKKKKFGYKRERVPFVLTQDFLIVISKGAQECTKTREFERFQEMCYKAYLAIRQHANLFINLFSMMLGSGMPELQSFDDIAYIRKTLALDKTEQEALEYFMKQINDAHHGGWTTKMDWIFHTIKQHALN
Activin receptor type-1-like (Homo sapiens), sequence (P37023 whole entry): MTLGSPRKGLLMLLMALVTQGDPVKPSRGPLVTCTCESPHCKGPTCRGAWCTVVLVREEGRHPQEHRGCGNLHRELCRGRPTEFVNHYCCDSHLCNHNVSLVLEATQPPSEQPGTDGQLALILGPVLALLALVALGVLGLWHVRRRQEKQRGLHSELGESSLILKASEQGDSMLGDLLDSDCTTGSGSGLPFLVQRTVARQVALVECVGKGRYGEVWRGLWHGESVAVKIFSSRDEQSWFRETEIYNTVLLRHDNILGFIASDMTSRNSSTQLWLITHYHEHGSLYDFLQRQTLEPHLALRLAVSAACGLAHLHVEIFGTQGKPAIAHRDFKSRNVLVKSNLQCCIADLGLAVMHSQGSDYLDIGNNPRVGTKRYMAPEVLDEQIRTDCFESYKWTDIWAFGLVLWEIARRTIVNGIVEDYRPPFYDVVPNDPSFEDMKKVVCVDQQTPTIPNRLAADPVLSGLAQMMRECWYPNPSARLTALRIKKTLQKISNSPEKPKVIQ
Serine/threonine-protein kinase MRCK beta (Homo sapiens), sequence (Q9Y5S2 whole entry): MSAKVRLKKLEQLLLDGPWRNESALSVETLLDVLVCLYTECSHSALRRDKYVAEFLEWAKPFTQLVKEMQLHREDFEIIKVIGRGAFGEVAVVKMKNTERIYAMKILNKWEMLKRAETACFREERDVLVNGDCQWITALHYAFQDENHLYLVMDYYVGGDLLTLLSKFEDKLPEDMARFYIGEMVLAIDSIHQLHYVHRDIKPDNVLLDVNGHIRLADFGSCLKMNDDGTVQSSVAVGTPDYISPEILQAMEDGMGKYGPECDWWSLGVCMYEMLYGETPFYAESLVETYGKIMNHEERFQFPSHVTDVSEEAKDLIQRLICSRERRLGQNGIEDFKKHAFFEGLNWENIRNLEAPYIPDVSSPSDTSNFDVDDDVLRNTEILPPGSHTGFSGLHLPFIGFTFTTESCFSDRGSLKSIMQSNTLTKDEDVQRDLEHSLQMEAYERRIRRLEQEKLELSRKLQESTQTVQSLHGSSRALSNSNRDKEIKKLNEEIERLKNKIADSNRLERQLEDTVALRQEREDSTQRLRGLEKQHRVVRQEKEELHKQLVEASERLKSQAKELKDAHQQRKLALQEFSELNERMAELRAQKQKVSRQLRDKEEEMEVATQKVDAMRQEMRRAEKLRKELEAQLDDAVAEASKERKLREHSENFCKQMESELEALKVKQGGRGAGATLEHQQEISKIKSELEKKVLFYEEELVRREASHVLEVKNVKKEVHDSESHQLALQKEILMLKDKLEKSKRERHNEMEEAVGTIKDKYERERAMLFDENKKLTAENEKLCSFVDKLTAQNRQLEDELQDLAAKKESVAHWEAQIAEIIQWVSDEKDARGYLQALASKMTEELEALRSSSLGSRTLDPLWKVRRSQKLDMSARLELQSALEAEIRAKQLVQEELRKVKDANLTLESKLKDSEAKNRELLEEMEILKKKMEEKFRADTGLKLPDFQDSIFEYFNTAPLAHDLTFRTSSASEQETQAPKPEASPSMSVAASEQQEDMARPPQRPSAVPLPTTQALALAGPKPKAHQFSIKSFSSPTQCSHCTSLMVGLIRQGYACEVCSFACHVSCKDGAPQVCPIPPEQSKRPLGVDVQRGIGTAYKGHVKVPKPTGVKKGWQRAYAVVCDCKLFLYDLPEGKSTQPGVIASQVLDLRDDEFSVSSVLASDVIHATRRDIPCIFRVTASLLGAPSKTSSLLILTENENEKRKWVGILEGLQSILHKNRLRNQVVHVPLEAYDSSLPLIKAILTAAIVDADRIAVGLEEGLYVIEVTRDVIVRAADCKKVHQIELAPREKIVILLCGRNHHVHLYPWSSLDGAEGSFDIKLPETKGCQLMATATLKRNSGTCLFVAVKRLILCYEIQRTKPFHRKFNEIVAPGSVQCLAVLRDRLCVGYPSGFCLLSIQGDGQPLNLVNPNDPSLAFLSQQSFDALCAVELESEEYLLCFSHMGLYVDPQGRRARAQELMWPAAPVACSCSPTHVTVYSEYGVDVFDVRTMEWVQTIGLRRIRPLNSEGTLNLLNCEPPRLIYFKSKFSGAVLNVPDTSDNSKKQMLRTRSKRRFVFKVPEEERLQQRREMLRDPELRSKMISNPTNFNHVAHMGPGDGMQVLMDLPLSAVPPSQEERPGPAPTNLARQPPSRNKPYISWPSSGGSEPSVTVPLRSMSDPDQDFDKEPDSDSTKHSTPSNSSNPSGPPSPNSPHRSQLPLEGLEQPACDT

Take `Nc1ccccc1Nc1ccc2c(c1)CCc1ccccc1C2=O`: the Activity stood at 90% in [1]; 84% in experiment [2]; 96% in experiment [3]; 83% in experiment [4]; 97% in experiment [5]; 79% in [6]. The Activity in experiment [7] amounted to 77%; in the experiment filed under Homo sapiens it was 98%; in experiment [8], 91%; in [9], 87%; in experiment [10], 91%; in [11] it was 88%. The Activity came out at 0.2% in [12]; 89% in [13]; 90% in experiment [14]; 64% in [15]; 77% in experiment [16]; 97% in [17]. The Activity is 94% in experiment [18]; 71% in [19]; 77% in experiment [20]; 94% in experiment [21]; 84% in experiment [22].

For the molecule `O=C1c2ccc(Nc3ccc(F)cc3F)cc2CCc2ccc(OC[C@H](O)CO)cc21` [Skepinone-L], the Activity in [1] worked out at 97%; in experiment [2], 90%; in experiment [3] it was 100%; in [4], 94%; in [5] it was 98%; in [6] it was 90%. Also, the Activity in experiment [7] is 95%; in the experiment listed under Homo sapiens, 98%; in experiment [8] it was 99%; in experiment [9], 90%; in [10], 86%; in experiment [11], 93%. Further, the Activity in experiment [12] worked out at 0.2%; in experiment [13], 100%; in experiment [14], 93%; in [15], 67%; in experiment [16], 94%; in experiment [17], 75%. Also, the Activity was 86% in experiment [18]; 97% in experiment [19]; 93% in experiment [20]; 78% in [21]; 76% in experiment [22].
